SMILES strings stand for the structures. Counter-ions that a name gives are not always drawn. Like-named read-outs stand apart in the source and are kept apart here. Where only a bound is given, the exact number is not on record here.

This assay addresses T1, IKK2 (Homo sapiens, UniProt O14920).
T1 construct: made in house; host or cells: insect cells (baculovirus, pFastBac; SF9)
T1 sequence (O14920 1-756): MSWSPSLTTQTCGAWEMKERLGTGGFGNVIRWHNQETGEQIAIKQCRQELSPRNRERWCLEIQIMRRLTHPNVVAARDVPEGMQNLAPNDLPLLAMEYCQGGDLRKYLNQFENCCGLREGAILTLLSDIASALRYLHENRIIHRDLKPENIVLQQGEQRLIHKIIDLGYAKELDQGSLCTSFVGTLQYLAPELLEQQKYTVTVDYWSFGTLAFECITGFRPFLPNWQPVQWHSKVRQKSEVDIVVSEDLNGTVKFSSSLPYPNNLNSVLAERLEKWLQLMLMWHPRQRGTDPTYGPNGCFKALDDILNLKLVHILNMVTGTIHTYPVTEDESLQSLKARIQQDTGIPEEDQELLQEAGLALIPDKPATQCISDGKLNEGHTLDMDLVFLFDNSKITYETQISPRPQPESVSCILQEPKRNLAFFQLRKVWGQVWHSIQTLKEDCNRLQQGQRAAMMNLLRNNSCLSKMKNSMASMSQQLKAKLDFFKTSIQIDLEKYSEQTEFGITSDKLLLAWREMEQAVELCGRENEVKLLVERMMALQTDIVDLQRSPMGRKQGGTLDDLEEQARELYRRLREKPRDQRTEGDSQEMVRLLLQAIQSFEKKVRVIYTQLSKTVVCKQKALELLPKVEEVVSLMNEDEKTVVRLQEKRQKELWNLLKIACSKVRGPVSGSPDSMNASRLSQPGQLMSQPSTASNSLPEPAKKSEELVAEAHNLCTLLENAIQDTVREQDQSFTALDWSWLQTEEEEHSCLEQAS
Briefly: IKKβ Resin Enzyme Assay (IKK2 resin). It counts as biochemical. The procedure, abridged: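 Enzyme: human IKK2 with a C-terminal FLAG tag, baculovirus-expressed, purified as homodimer on anti-FLAG resin. It phosphorylates a biotinylated IκBα peptide with 1 μM ATP plus [γ-33P]ATP in 25 mM Hepes pH 7.6, Mg/Mn, for 30 min at 25° C. Incorporation is counted by scintillation after anion-exchange resin stop.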

Where [1] appears, read: Table 3, read-out: IKK Resin IC50.
The mark [2] stands for this setting: Table 2, read-out: IKK Resin IC50.
The mark [3] stands for this setting: Table 18, read-out: IKK2 Resin IC50.
[4] abbreviates: Table 4, read-out: IKK2 Resin IC50.

Take `NC(=O)c1nn(-c2cccc(O)c2)c2c1CCc1ccc(NC(=O)c3cccnc3Cl)cc1-2` [Example 284, 8-{[(2-chloropyridin-3-yl)carbonyl]amino}-1-(3-hydroxyphenyl)-4,5-dihydro-1H-benzo[g]indazole-3-carboxamide]: for the setting “Table 10, read-out: IKK2 Resin IC50”, the IC50 was no more than 1000 nM.
As to `CS(=O)(=O)c1ccc(-n2nc(C(N)=O)c3c2-c2cc(NC(=O)c4cc(F)ccc4[N+](=O)[O-])ccc2CC3)cc1` [Example 151, 8-[(5-fluoro-2-nitrobenzoyl)amino]-1-[4-(methylsulfonyl)phenyl]-4,5-dihydro-1H-benzo[g]indazole-3-carboxamide], the IC50 under setting [1] is no more than 1000 nM.
With `CS(=O)(=O)c1ccc(-n2nc(C(N)=O)c3c2-c2cc(NC(=O)c4cc(N=[N+]=[N-])ccc4[N+](=O)[O-])ccc2CC3)cc1` [Example 121, 8-[(5-azido-2-nitrobenzoyl)amino]-1-[4-(methylsulfonyl)phenyl]-4,5-dihydro-1H-benzo[g]indazole-3-carboxamide], under setting [2], the IC50 was no more than 1000 nM.
In the case of `NCCCS(=O)(=O)c1ccc(-n2nc(C(N)=O)c3c2-c2cc(NC(=O)c4ccccc4Cl)ccc2CC3)cc1` [Example 404, 1-{4-[(3-aminopropyl)sulfonyl]phenyl}-8-[(2-chlorobenzoyl)amino]-4,5-dihydro-1H-benzo[g]indazole-3-carboxamide hydrochloride], the IC50 under setting [3] was no more than 1000 nM.
On to `CNC(=O)/C=C/c1ccc(-n2nc(C(N)=O)c3c2-c2cc(NC(=O)c4ccccc4Cl)ccc2CC3)cc1` [Example 311, 8-[(2-chlorobenzoyl)amino]-1-{4-[(1E)-3-(methylamino)-3-oxoprop-1-enyl]phenyl}-4,5-dihydro-1H-benzo[g]indazole-3-carboxamide], for which the IC50 (Table 12, read-out: IKK2 Resin IC50) was no more than 1000 nM.
`NC(=O)c1nn(-c2ccc3c(c2)OCO3)c2c1CCc1ccc(NC(=O)c3ccccc3Cl)cc1-2` [Example 165, 1-(1,3-benzodioxol-5-yl)-8-[(2-chlorobenzoyl)amino]-4,5-dihydro-1H-benzo[g]indazole-3-carboxamide]: under setting [4], the IC50 is no more than 1000 nM.
Regarding `NC(=O)c1nn(-c2ccc3c(c2)OCO3)c2c1CCc1ccc(NC(=O)c3cc(Cl)ccc3Cl)cc1-2` [Example 189, 1-(1,3-benzodioxol-5-yl)-8-[(2,5-dichlorobenzoyl)amino]-4,5-dihydro-1H-benzo[g]indazole-3-carboxamide], the IC50 under setting [4] is no more than 1000 nM.
Consider `CS(=O)(=O)c1ccc(-n2nc(C(N)=O)c3c2-c2cc(NC(=O)c4ccc(C(F)(F)F)cc4[N+](=O)[O-])ccc2CC3)cc1` [Example 152, 1-[4-(methylsulfonyl)phenyl]-8-{[2-nitro-4-(trifluoromethyl)benzoyl]amino}-4,5-dihydro-1H-benzo[g]indazole-3-carboxamide], for which, under setting [1], the IC50 is no more than 1000 nM.
Take `CCS(=O)(=O)c1ccc(-n2nc(C(N)=O)c3c2-c2cc(NC(=O)c4ccccc4Cl)ccc2CC3)cc1` [Example 395, 8-[(2-chlorobenzoyl)amino]-1-[4-(ethylsulfonyl)phenyl]-4,5-dihydro-1H-benzo[g]indazole-3-carboxamide]: the IC50 under setting [3] is no more than 1000 nM.
On to `N#Cc1ccc(-n2nc(C(N)=O)c3c2-c2cc(NC(=O)c4ccccc4Cl)ccc2CC3)cc1` [Example 369, 8-[(2-chlorobenzoyl)amino]-1-(4-cyanophenyl)-4,5-dihydro-1H-benzo[g]indazole-3-carboxamide], for which, for the setting “read-out: IKK-2 resin IC50”, the IC50 was no more than 1000 nM.
For `NC(=O)c1nn(-c2ccc(CCC(=O)CO)cc2)c2c1CCc1ccc(NC(=O)c3ccccc3Cl)cc1-2` [Example 299, 8-[(2-chlorobenzoyl)amino]-1-[4-(4-hydroxy-3-oxobutyl)phenyl]-4,5-dihydro-1H-benzo[g]indazole-3-carboxamide], the IC50 (Table 11, read-out: IKK2 Resin IC50) was no more than 1000 nM.
With `CSc1ccc(-n2nc(C(N)=O)c3c2-c2cc(NS(C)(=O)=O)ccc2CC3)cc1` [Example 411, 8-[(methylsulfonyl)amino]-1-[4-(methylthio)phenyl]-4,5-dihydro-1H-benzo[g]indazole-3-carboxamide], where the note is “Table 19, read-out: IKK2 Resin IC50”, the IC50 is no more than 1000 nM.
For `NC(=O)c1nn(-c2ccc(F)cc2)c2c1CCc1ccc(NC(=O)c3ccncc3Cl)cc1-2` [Example 228, 8-[(3-chloroisonicotinoyl)amino]1-(4-fluorophenyl)-4,5-dihydro-1H-benzo[g]indazole-3-carboxamide hydrochloride], the IC50 (Table 6, read-out: IKK2 Resin IC 50) is no more than 1000 nM.
For the compound `CN(C)c1ccc(Cl)c(C(=O)Nc2ccc3c(c2)-c2c(c(C(N)=O)nn2-c2ccc(S(C)(=O)=O)cc2)CC3)c1` [Example 120, 8-{[2-chloro-5-(dimethylamino)benzoyl]amino}-1-[4-(methylsulfonyl)phenyl]-4,5-dihydro-1H-benzo[g]indazole-3-carboxamide], under setting [2], the IC50 was no more than 1000 nM.
For `NC(=O)c1nn(-c2ccc(F)cc2F)c2c1CCc1ccc(NC(=O)c3ccccc3Cl)cc1-2` [Example 353, 8-[(2-chlorobenzoyl)amino]-1-(2,4-difluorophenyl)-4,5-dihydro-1H-benzo[g]indazole-3-carboxamide], where the note is “Table 14, read-out: IKK2 Resin IC50”, the IC50 was no more than 1000 nM.
As for `NC(=O)c1nn(-c2ccc3c(c2)OCO3)c2c1CCc1ccc(NC(=O)c3cc(N)ccc3Cl)cc1-2` [Example 172, 8-[(5-amino-2-chlorobenzoyl)amino]-1-(1,3-benzodioxol-5-yl)-4,5-dihydro-1H-benzo[g]indazole-3-carboxamide], the IC50 under setting [4] was no more than 1000 nM.
As to `CS(=O)(=O)c1ccc(-n2nc(C(N)=O)c3c2-c2cc(NC(=O)c4cccc(F)c4F)ccc2CC3)cc1` [Example 101, 8-[(2,3-difluorobenzoyl)amino]-1-[4-(methylsulfonyl)phenyl]-4,5-dihydro-1H-benzo[g]mdazole-3-carboxamide], the IC50 under setting [2] was no more than 1000 nM.
Turning to `CS(=O)(=O)c1ccc(-n2nc(C(N)=O)c3c2-c2cc(NC(=O)c4cc5c(cc4Cl)OCO5)ccc2CC3)cc1` [Example 125, 8-{[(6-chloro-1,3-benzodioxol-5-yl)carbonyl]amino}-1-[4-(methylsulfonyl)phenyl]-4,5-dihydro-1H-benzo[g]indazole-3-carboxamide], the IC50 under setting [2] was no more than 1000 nM.
Regarding `CS(=O)(=O)c1ccc(-n2nc(C(N)=O)c3c2-c2cc(NC(=O)c4ccc(Cl)cc4[N+](=O)[O-])ccc2CC3)cc1` [Example 132, 8-[(4-chloro-2-nitrobenzoyl)amino]-1-[4-(methylsulfonyl)phenyl]-4,5-dihydro-1H-benzo[g]indazole-3-carboxamide], under setting [1], the IC50 was no more than 1000 nM.
On to `NC(=O)c1nn(-c2ccc3c(c2)OCO3)c2c1CCc1ccc(NC(=O)c3ccc(O)nc3)cc1-2` [Example 186, 1-(1,3-benzodioxol-5-yl)-8-{[(6-hydroxypyridin-3-yl)carbonyl]amino}-4,5-dihydro-1H-benzo[g]indazole-3-carboxamide], for which, under setting [4], the IC50 was no more than 1000 nM.
With `CS(=O)(=O)c1ccc(-n2nc(C(N)=O)c3c2-c2cc(NC(=O)c4ccc(N=[N+]=[N-])cc4)ccc2CC3)cc1` [Example 122, 8-[(4-azidobenzoyl)amino]-1-[4-(methylsulfonyl)phenyl]-4,5-dihydro-1H-benzo[g]indazole-3-carboxamide], the IC50 under setting [2] is no more than 1000 nM.
For `NC(=O)c1nn(-c2ccc3c(c2)OCO3)c2c1CCc1ccc(NC(=O)c3ccc(N)cc3Cl)cc1-2` [Example 180, 8-[(4-amino-2-chlorobenzoyl)amino]-1-(1,3-benzodioxol-5-yl)-4,5-dihydro-1H-benzo[g]indazole-3-carboxamide], the IC50 under setting [4] was no more than 1000 nM.
Regarding `COc1cc(C(=O)Nc2ccc3c(c2)-c2c(c(C(N)=O)nn2-c2ccc(S(C)(=O)=O)cc2)CC3)c([N+](=O)[O-])cc1OC` [Example 150, 8-[(4,5-dimethoxy-2-nitrobenzoyl)amino]-1-[4-(methylsulfonyl)phenyl]-4,5-dihydro-1H-benzo[g]indazole-3-carboxamide], under setting [1], the IC50 is no more than 1000 nM.
Regarding `COc1ccc(Cl)c(C(=O)Nc2ccc3c(c2)-c2c(c(C(N)=O)nn2-c2ccc4c(c2)OCO4)CC3)c1` [Example 178, 1-(1,3-benzodioxol-5-yl)-8-[(2-chloro-5-methoxybenzoyl)amino]-4,5-dihydro-1H-benzo[g]indazole-3-carboxamide], the IC50 under setting [4] was no more than 1000 nM.
The same measure, in the same setting: with `NC(=O)c1nn(-c2ccc3c(c2)OCO3)c2c1CCc1ccc(NC(=O)c3cc4c(cc3Cl)OCO4)cc1-2` [Example 168, 1-(1,3-benzodioxol-5-yl)-8-{[(6-chloro-1,3-benzodioxol-5-yl)carbonyl]amino}-4,5-dihydro-1H-benzo[g]indazole-3-carboxamide] the figure was no more than 1000 nM.

The values are drawn from US7186743B2, “Substituted pyrazolyl compounds for the treatment of inflammation” (Pharmacia Corporation, priority 2001, dated 2007).
